According to patent US20140249143A1, “Compounds And Methods For Enhancing Innate Immune Responses” (GlaxoSmithKline LLC, priority 2011, published 2014):

What was measured:
[1] = system: HCV replication in 1b HCV replicon cells; assay: siRNA knockdown of JAK/STAT pathway factors in 1b HCV replicon cells; type: cell-based, Hepatitis C virus; details: 2 μM, 30 h, 50 nM siRNA
Procedure: 50 nM of siRNA against each gene (Dharmacon, on-target SMART pool: L-020209-00-0005 (IFNAR1), L-015411-00-0005 (IFNAR2), L-007981-00-0005 (IL28RA), L-007926-00-0005 (IL10RB), L-011-57-00-0005(IFNGR1), L-012713-00-0005 (IFNGR2), L-003145-00-0005 (JAK1), L-003146-00-0005 (JAK2), L-003182-00-0005 (Tyk2), L-003147-00-0 005 (JAK3), L-003543-00-0005 (STAT1), L-012064-00-0005 (STAT2)) was transfected in the 1b HCV replicon cells using lipofectamine RNAiMax™ (Invitrogen) according to the manufacturer's protocol. A scrambled irrelevant smart pool control siRNA was included as a control (IRR). After 3 days post transfection, the cells were treated with DMSO, IFNα (5 U/ml), IFNγ (100 U/ml), and Example 1 (2 μM) in triplicate for 30 h. The cells were harvested with Bright-Glo (Promega) and the HCV replication was measured by luminescence. […] To measure the efficiency of the knockdown, total RNA was harvested from the siRNA-transfected cells at day 3 post transfection and analyzed by real time RT-PCR.

[2] = system: ISG56 (Interferon-Stimulated Gene 56) promoter ISRE; assay: ISG56 luciferase reporter assay in HEK 293 cells; type: cell-based; details: Homo sapiens, HEK293; HEK 293 reporter, 24 hours; 100% = small molecule control test compound; read-out: ISG56 (Average Max Response) %
Summary of the method: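 HEK 293 cells stably carrying a firefly luciferase reporter driven by the ISG56 promoter ISRE were incubated with compounds (11-point, 3-fold dilutions) for 24 h at 37 °C, 10,000 cells/well. Steady-Glo luminescence was normalized to DMSO and control-agonist wells, and pEC50 came from a four-parameter fit.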

[3] = system: HCV genotype 1a subgenomic replicon; assay: Anti-Hepatitis C replicon assay, genotype 1a (luciferase); type: cell-based; details: Hepatitis C virus; luciferase activity measured 48 hours later; read-out: HCV Genotype 1A Replicon pEC50 (converted)
Summary of the method: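 The 1b line is ET cells carrying the I389luc-ubi-neo/NS3-3′/ET replicon with adaptive mutations E1202G, T1280I and K1846T; the 1a line is an Apath replicon line modified with firefly luciferase. Cells were exposed 48 h to compound (final 0.03 pM–50 μM, 0.5-1% DMSO), read by Steady-Glo luciferase, and IC50 came from 10-point four-parameter logistic fits; cytotoxicity was read by CellTiter-Glo.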

FC(F)(F)c1cc(C(F)(F)F)c2ccc3nc(-c4nnco4)cn3c2n1 [Compound 1, 2-[2,4-bis(trifluoromethyl)imidazo[1,2-a]1,8-naphthyridin-8-yl]-1,3,4-oxadiazole]
antiviral activity after knockdown of IFNAR2, JAK1, STAT1, or STAT2 [1]: affected the antiviral activity
antiviral activity after knockdown of JAK1 [1]: fully abolished
antiviral activity after knockdown of other Janus kinases (JAKs) [1]: did not show any effect
Emax [2]: 302%
EC50 [3]: 50.1 nM
